Assay results reported in patent US20130079345A1, “[…] ACTIVE DISUBSTITUTED TRIAZINE DERIVATIVES” (BAYER INTELLECTUAL PROPERTY GMBH, priority 2010, published 2013).

How the values were obtained:
CDK8/Cyclin C = target: T1, CDK8/Cyclin C (Homo sapiens, UniProt P49336); assay: LanthaScreen Eu Kinase Binding Assay, CDK8; settings: tracer 236, read-out: Affinity (Kd) CDK8
T1 construct: purchased Invitrogen
Experimental: (§1) This protocol describes how the LanthaScreen Eu Kinase Binding Assay was performed to determine dissociation constants (Kd) of compounds of general formula (I) and CDK/Cyclin complexes. The principle behind this assay is based upon the binding and displacement of an Alexa Fluor 647-labeled tracer, which binds to the active site of kinases. Binding of the tracer to the kinase is detected using a Eu-labeled antibody. Simultaneous binding of both the tracer and antibody to the kinase gives rise to a FRET-signal. Binding of an inhibitor to the kinase competes for binding with the tracer, resulting in a loss of FRET.
(§2) The compounds of general formula (I) summarized in Table 1 were diluted from a 10 mM DMSO stock solution 1:10 in a total volume of 15 μL DMSO. This compound predilution was then serial diluted 1:3 over 8 steps in DMSO and briefly spun down. Each compound solution was now diluted 1:33.33 in kinase buffer (HEPES: 20 mM, pH: 8.0; MgCl2: 10 mM; DTT: 1 mM; Brij-35: 0.01%), mixed thoroughly and spun down. For every sample, 5 μL of the diluted compound were mixed with 5 μL tracer working solution (e.g. 60 nM tracer 236 in kinase buffer for CDK2/Cyclin A) and 5 μL CDK/Cyclin/Anti-GST-AB-working solution (e.g. 15 nM CDK2/Cyclin A, 1:250 dilution of Anti-GST-AB in kinase buffer) in a well of a small volume 384 well plate (Corning Incorporated, Corning, N.Y., USA; order no. 3673). […] For positive controls, in each well 5 μL of DMSO working solution (3% DMSO diluted in kinase buffer) was mixed with 5 μL CDK/Cyclin/Anti-GST-AB-working solution: (e.g. 15 nM CDK2/Cyclin A, 1:250 dilution of Anti-GST-AB in kinase buffer) and 5 μL Tracer working solution (e.g. 60 nM Tracer 236 in kinase buffer for CDK2/Cyclin A). Positive and negative controls were calculated from at least 8 different sample wells. The 384 well plates were mixed in a Teleshaker plate mixer (Beckman Coulter, Brea, Calif., USA) at 2000 rpm for 40 sec, and incubated for 1 h at room temperature before reading. The FRET signal was measured at 340 nm excitation, 665 nm and 615 nm emission (for the kinase tracer and LanthaScreen Eu-AB, respectively) with an Envision spectrophotometer (Perkin Elmer, Waltham, Mass., USA) with 50 μs delay and 300 μs integration time. Kd values were determined from the sigmoidal dose response curves with the software Quattro Workflow (Quattro GmbH, Munich, Germany).

CDK9/Cyclin T1 = target: T2, CDK9/Cyclin T1 (Homo sapiens, UniProt P50750); assay: LanthaScreen Eu Kinase Binding Assay, CDK9/Cyclin T1; settings: tracer 236, read-out: Affinity (Kd) CDK9/Cyclin T1
T2 construct: purchased Invitrogen
Experimental: as §1, §2

CDK9/Cyclin K = target: T3, CDK9/Cyclin K (Homo sapiens, UniProt P50750); assay: LanthaScreen Eu Kinase Binding Assay, CDK9/Cyclin K; settings: tracer 236, read-out: Affinity (Kd) CDK9/Cyclin K
T3 construct: purchased Invitrogen
Experimental: as §1, §2

CDK7/CyclinH/Mat1 = target: T4, CDK7/CyclinH/Mat1 (Homo sapiens, UniProt P50613); assay: LanthaScreen Eu Kinase Binding Assay, CDK7; settings: tracer 236, read-out: Affinity (Kd) CDK7
T4 construct: purchased Carna Biosciences
Experimental: as §1, §2

[1] = tested on: LPS-induced TNF alpha release in PBMCs; assay: TNF alpha release assay; type: cell-based; settings: Homo sapiens, PBMC, 6 h, 1 μg/mL LPS
Experimental: Freshly isolated peripheral blood mononuclear cells (PBMCs) were seeded in 96-well cell culture plates with 200,000 cells in 100 μl cell culture medium (DMEM cell culture medium+glutamine from PAN Biotech GmbH, Aidenbach, Germany) supplemented with 10% fetal calf serum (PAA Laboratories GmbH, Pasching, Austria) per well and incubated overnight at 37° C., 5% CO2. To each well, 100 μL cell culture medium with 2× concentrated test compounds diluted from 10 mM DMSO stocks, or 100 μL DMEM with 0.4% DMSO for control wells, was added. The compounds of general formula (I) summarized in Table 6 were used in this assay. After incubation for 1 h at 37° C., 5% CO2, cells were stimulated with 1 μg/mL LPS (Lipopolysaccharides, Sigma, catalog #L4391-1MG; 1 mg/ml stock solution), or left untreated for negative controls, and plates were incubated for 6 h at 37° C./5% CO2. The cell culture plates were centrifuged at 2000 rpm for 5 minutes, and supernatants were transferred to fresh 96-well polypropylene plates. 25 µL of supernatants were transferred into 96-well-plates of the human TNF alpha-tissue culture kit (Meso Scale Discovery, Gaithersburg, Md., USA), and manufacturer's instructions were followed for analysis of TNF alpha levels. Chemoluminescence was measured in the Mesoscale Sector Imager, and EC50 values were calculated with the software Excel Fit (IDBS, Guildford, UK) from 2-fold dilution series comprising at least 6 concentrations in duplicates.

CDK2/CyclinA = target: T5, CDK2/CyclinA (Homo sapiens, UniProt P24941); assay: LanthaScreen Eu Kinase Binding Assay, CDK2; settings: tracer 236, read-out: Affinity (Kd) CDK2
T5 construct: purchased Proqinase
Experimental: as §1, §2

[2] = tested on: NF-kappaB reporter gene activation in HEK293 cells; assay: NF-kappaB reporter assay; type: cell-based; settings: Homo sapiens, 20 ng/ml TNF alpha, 5 h
Experimental: Cells were maintained in RPMI cell culture medium+glutamine (PAN Biotech GmbH, Aidenbach, Germany) supplemented with 10% fetal calf serum (PAA Laboratories GmbH, Pasching, Austria) and grown at 37° C., 5% CO2. HEK293 cells grown to 50% confluence were transfected with the Amaxa® Cell Line Nucleofector® Kit V (Lonza, Basel, Switzerland, catalog #VCA-1003). Transfections were performed according to manufacturer's optimized protocol for transfection of HEK293 cells. In brief, 2×10^5 cells were transfected with 5 μg highly purified plasmid DNA. Cells were transfected with a NF-kappa B reporter plasmid (pNFkBluc), pTALluc for control, or pMAXGFP for transfection control. After transfection, cells were taken up in 500 μL RPMI1640 cell culture medium, incubated for 1 h at 37° C., and 4.5 ml DMEM without phenol red were added per transfection. Transfected cells were seeded in 96 well plates (Greiner Bio-One, Frickenhausen, Germany, catalog #655098) with 100 μL cell suspension per well and incubated for 48 h. To each well, 100 μL DMEM with 2× concentrated compound diluted from 10 mM DMSO stocks, or 100 μL DMEM with 0.4% DMSO for control wells, was added. The compounds of general formula (I) summarized in Table 6 were used in this assay. Cells were stimulated with 20 ng/ml TNF alpha, and plates were incubated for 5 h at 37° C./5% CO2. Cell culture supernatants were removed to leave 100 μl medium per well, followed by addition of 100 μl Bright Glo luciferase assay reagent (Promega, Madison, Wis., USA, catalog #E2620), and shaking for 5 minutes in the dark. Luminescence was measured with a Victor Photospectrometer (Perkin Elmer, Waltham, Mass., USA). […], values were calculated with the software Excel Fit (IDBS, Guildford, UK) from 2-fold dilution series comprising at least 10 concentrations in duplicates.

T2 sequence (P50750 whole entry): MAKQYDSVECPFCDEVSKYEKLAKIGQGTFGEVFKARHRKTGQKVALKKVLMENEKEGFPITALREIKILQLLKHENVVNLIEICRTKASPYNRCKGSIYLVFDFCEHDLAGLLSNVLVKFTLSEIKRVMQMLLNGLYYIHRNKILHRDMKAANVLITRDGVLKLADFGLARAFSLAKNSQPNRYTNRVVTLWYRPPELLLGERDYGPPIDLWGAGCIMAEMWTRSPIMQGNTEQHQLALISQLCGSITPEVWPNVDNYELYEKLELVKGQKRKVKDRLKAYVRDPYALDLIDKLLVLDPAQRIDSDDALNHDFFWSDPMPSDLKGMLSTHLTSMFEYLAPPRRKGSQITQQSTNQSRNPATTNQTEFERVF
T2 sequence (O60563 whole entry partner): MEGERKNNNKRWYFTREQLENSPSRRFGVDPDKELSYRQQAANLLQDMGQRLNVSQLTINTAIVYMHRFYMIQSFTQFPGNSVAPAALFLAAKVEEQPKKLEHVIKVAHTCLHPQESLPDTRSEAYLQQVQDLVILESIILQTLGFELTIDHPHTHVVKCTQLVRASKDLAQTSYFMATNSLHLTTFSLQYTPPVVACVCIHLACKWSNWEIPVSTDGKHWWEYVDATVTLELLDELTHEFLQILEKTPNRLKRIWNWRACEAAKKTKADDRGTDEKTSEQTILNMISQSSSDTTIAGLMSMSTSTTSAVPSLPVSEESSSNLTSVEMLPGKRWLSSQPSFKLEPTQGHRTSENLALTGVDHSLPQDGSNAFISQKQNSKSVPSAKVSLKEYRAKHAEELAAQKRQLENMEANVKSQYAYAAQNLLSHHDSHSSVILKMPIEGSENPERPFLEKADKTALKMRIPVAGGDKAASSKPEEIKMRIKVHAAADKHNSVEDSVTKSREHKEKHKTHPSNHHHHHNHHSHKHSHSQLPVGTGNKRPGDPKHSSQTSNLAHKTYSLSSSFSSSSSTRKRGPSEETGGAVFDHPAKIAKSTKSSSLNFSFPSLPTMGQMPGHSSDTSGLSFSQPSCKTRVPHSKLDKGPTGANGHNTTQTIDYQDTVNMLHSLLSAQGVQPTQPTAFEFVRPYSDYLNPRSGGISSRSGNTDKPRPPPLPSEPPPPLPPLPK
T3 sequence (P50750 whole entry): as the sequence (P50750 whole entry) above
T3 sequence (O75909 whole entry partner): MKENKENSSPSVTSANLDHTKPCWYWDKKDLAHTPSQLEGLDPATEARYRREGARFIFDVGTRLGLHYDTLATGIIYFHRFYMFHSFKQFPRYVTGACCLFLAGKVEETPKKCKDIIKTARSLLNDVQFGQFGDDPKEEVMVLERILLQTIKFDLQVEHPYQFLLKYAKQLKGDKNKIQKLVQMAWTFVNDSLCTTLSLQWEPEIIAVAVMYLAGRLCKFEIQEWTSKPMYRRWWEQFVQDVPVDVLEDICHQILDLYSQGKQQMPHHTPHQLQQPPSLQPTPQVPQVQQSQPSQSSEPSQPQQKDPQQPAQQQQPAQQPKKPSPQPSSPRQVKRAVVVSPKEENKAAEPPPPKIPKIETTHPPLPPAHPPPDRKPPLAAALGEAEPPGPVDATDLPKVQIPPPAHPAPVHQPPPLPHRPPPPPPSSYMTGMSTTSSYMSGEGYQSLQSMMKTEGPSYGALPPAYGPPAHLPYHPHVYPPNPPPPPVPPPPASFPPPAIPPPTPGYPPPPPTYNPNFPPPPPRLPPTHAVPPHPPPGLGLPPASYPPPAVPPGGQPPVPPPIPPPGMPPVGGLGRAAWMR
T4 sequence (P50613 whole entry): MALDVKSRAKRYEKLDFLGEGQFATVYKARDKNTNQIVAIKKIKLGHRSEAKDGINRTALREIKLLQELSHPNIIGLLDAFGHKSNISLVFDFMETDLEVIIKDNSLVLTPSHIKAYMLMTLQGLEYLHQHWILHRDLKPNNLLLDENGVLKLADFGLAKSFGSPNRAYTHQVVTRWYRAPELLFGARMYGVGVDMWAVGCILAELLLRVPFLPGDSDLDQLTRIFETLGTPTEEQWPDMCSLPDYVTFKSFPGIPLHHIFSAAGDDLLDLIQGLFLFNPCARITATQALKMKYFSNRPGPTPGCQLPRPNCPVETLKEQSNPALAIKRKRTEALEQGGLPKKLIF
T4 sequence (P51946 whole entry partner): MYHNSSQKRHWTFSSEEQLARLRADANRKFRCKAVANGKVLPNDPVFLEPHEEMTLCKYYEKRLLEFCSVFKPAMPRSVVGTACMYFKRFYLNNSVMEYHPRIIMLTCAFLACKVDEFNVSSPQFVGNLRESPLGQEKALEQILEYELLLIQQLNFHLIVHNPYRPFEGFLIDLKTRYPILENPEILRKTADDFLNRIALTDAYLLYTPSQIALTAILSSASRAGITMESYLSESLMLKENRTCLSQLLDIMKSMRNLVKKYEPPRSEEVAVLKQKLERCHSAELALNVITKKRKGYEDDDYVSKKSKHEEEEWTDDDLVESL
T4 sequence (P51948 whole entry partner): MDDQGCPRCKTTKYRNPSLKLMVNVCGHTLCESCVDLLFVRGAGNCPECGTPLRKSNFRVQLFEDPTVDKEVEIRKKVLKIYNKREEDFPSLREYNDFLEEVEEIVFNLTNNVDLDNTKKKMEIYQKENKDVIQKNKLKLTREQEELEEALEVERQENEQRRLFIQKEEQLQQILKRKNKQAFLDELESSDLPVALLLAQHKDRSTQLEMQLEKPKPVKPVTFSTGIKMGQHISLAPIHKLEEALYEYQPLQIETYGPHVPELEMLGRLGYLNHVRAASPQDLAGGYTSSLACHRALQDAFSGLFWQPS
T1 sequence (P49336 whole entry): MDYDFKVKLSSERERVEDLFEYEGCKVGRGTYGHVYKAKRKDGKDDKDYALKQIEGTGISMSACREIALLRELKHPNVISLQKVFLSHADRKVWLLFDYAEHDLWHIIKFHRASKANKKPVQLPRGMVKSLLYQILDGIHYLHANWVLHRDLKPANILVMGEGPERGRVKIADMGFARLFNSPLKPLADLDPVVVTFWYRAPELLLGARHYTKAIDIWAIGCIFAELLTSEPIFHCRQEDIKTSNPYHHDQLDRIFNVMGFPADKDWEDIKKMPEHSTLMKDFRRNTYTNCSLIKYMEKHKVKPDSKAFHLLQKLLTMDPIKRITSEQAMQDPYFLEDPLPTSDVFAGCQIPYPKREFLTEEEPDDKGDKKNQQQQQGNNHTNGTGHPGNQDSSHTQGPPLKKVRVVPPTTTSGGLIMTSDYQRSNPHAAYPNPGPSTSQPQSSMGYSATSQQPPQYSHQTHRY
T1 sequence (P24863 whole entry partner): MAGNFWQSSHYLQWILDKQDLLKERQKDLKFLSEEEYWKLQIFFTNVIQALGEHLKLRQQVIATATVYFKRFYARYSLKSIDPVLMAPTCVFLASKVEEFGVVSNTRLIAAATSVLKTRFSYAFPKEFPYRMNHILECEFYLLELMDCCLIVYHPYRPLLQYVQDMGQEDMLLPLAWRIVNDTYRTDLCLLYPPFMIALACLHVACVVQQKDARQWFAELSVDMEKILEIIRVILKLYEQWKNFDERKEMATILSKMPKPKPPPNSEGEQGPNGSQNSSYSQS

COc1ccccc1-c1ncnc(Nc2cccc(NC(=O)Nc3ccccc3)c2)n1 [Compound N1, N-[3-((4-(2-Methoxyphenyl)-1,3,5-triazin-2-yl)amino)phenyl]-N′-phenyl-urea]
Kd (CDK8/Cyclin C): > 10 µM
Kd (CDK9/Cyclin T1): 0.478 µM
Kd (CDK9/Cyclin K): 0.159 µM
Kd (CDK7/CyclinH/Mat1): > 30 µM
IC50 [1]: 6.71 µM
Kd (CDK2/CyclinA): 2.36 µM
IC50 [2]: 18.4 µM
